Laboratory results reported in the NIST ThermoML archive (doi:10.1021/je100734t).

Assay: xn = mol fraction of the nth substance listed
Details: 101 kPa, Liquid; for speed of sound: Pulse-echo method

CCCCCCCCCO [nonan-1-ol] + CCc1ccccc1
Details | mass density, 293.15 K [kg/m3] | mass density, 303.15 K [kg/m3] | mass density, 313.15 K [kg/m3] | speed of sound, 293.15 K [m/s] | speed of sound, 303.15 K [m/s] | speed of sound, 313.15 K [m/s]
x2 = 0 | 827.7 | 820.82 | 813.88 | 1381 | 1347 | 1314
x2 = 0.0611 | 829.32 | 822.34 | 815.3 | 1378 | 1343 | 1309
x2 = 0.1285 | 831.14 | 824.06 | 816.91 | 1374 | 1338 | 1304
x2 = 0.1791 | 832.56 | 825.4 | 818.16 | 1371 | 1335 | 1300
x2 = 0.2466 | 834.5 | 827.23 | 819.87 | 1366 | 1330 | 1294
x2 = 0.3151 | 836.57 | 829.17 | 821.69 | 1362 | 1324 | 1288
x2 = 0.3717 | 838.35 | 830.85 | 823.26 | 1358 | 1320 | 1283
x2 = 0.4254 | 840.12 | 832.51 | 824.82 | 1354 | 1316 | 1279
x2 = 0.5007 | 842.74 | 834.99 | 827.14 | 1349 | 1311 | 1273
x2 = 0.5756 | 845.55 | 837.63 | 829.63 | 1345 | 1306 | 1267
x2 = 0.6411 | 848.19 | 840.11 | 831.97 | 1341 | 1302 | 1263
x2 = 0.7122 | 851.28 | 843.05 | 834.74 | 1339 | 1298 | 1259
x2 = 0.7798 | 854.46 | 846.08 | 837.59 | 1337 | 1296 | 1257
x2 = 0.8557 | 858.37 | 849.81 | 841.14 | 1336 | 1295 | 1255
x2 = 0.9341 | 862.85 | 854.1 | 845.28 | 1338 | 1295 | 1254
